In one experiment the target is T1, Kir2.2 (Homo sapiens, UniProt Q14500).
T1 construct: expressed in transfected cells
T1 sequence (Q14500 1-433): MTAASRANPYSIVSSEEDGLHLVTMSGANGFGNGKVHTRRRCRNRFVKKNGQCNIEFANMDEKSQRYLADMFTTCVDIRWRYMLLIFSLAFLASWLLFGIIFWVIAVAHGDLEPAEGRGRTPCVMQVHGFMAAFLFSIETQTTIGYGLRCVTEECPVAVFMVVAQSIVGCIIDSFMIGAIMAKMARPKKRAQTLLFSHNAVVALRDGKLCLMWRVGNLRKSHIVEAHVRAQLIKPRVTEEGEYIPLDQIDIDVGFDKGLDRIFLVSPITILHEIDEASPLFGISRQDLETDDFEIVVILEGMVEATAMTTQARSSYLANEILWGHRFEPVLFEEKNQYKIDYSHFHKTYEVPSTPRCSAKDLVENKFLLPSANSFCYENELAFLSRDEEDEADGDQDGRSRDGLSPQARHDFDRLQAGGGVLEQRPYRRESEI
Kind of experiment: Tl+ flux selectivity assay, Kir2.2. As to conditions: n = 2 independent experiments in triplicate, read-out: Inhibition of Tl+ flux (IC50). It counts as cell-based. As for the experimental part: [Worded in the source for another target; used here, by the source, with some conditions changed.] Tl^+ flux assays were performed essentially as described previously, [18], [19]. Briefly, stably transfected T-Rex-HEK-293 cells expressing AeKir1 channels were cultured overnight in 384-well plates (20,000 cells/20 µL/well black-walled, clear-bottomed BD PureCoat amine-coated plates (BD, Bedford, MA) with a plating media containing DMEM, 10% dialyzed FBS and 1 µg/mL tetracycline. The next day, the cell culture medium was replaced with a dye-loading solution containing assay buffer (Hanks Balanced Salt Solution with 20 mM HEPES, pH 7.3), 0.01% (w/v) Pluronic F-127 (Life Technologies, Carlsbad, CA), and 1.2 µM of the thallium-sensitive dye Thallos-AM (TEFlabs, Austin, TX). Following 1 hr incubation at room temperature, the dye-loading solution was washed from the plates and replaced with 20 µL/well of assay buffer. […] Tl^+ flux data were analyzed as previously described, [21], [22] using a combination of Excel (Microsoft Corp, Redmond, WA) with XLfit add-in (IDBS, Guildford, Surrey, UK) and OriginPro (OriginLab, Northampton, MA) software. […] The slope of the fluorescence increase beginning 5 s after Tl^+ addition and ending 15 s after Tl^+ addition was calculated.

The next experiment has as its target AeKir2B (Aedes aegypti, UniProt L0EQ40). The experiment can be described thus: Two-electrode electrophysiology of Xenopus oocytes expressing AeKir2B. The format is cell-based. As to conditions: inward current at −140 mV, 95% CI: 31.7–64.2 µM, n = 4–5 oocytes per concentration, read-out: IC50 of AeKir2B current inhibition. On the procedure:
AeKir1 and AeKir2B channels were expressed heterologously in Xenopus laevis oocytes as described previously. In brief, defolliculated Xenopus oocytes (purchased from Ecocyte Bioscience, Austin, TX) were injected with 10 ng (0.35 ng/nL) of either AeKir1 or AeKir2B cRNA and cultured for 3–7 days in OR3 media at 18°C. Oocytes injected with 28 nl of nuclease-free H2O served as controls.
All electrophysiological experiments on Xenopus oocytes were performed at room temperature. When present, VU625 was dissolved in solution III or solution V to a final concentration of 0.1, 1, 5, 15, or 50 µM (0.05% DMSO). All solutions were delivered by gravity to a RC-3Z oocyte chamber (Warner Instruments, Hamden, CT) via polyethylene tubing at a flow rate of ∼2 ml/min. Solution changes were made with a Rheodyne Teflon 8-way Rotary valve (Model 5012, Rheodyne, Rohnert Park, CA).
Electrophysiological recordings from oocytes were conducted as described previously In brief, each oocyte was transferred to the holding chamber under superfusion with solution I and impaled with two conventional-glass microelectrodes backfilled with 3 M KCl (resistances of 0.5–1.5 MΩ) to measure membrane potential (Vm) and whole-cell membrane current (Im), respectively. […] All Vm and Im values were recorded by a Digidata 1440A Data Acquisition System (Molecular Devices) and the Clampex module of pCLAMP. […]

Molecules are shown by their SMILES.

AeKir2B, sequence (L0EQ40 entry or part of it): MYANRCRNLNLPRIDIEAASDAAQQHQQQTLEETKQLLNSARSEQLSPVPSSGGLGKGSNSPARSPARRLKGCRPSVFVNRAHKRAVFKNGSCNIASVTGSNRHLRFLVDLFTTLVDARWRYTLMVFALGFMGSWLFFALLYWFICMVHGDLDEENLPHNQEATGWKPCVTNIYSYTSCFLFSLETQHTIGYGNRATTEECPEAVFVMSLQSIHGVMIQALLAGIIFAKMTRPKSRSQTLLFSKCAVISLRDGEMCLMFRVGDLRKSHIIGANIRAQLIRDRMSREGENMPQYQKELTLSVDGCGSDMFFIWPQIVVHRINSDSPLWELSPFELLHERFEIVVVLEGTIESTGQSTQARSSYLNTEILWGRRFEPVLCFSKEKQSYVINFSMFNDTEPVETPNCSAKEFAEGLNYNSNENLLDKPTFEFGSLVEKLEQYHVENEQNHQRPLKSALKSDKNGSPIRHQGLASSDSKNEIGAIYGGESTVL

On to `CCC(=O)N1c2ccc(S(=O)(=O)Nc3cccc(OC)c3)cc2CC1C` (centres unmarked) [VU625, N-(3-methoxyphenyl)-2-methyl-1-propionylindoline-5-sulfonamide], for which the IC50 (usually the concentration needed to halve the response being measured) was > 30 µM on Kir2.2 and 45.1 µM on AeKir2B.

(Values after article PMC4222822, “Discovery and Characterization of a Potent and Selective Inhibitor of Aedes aegypti Inward Rectifier Potassium Channels” (PLoS ONE, 2014).)
